Data reported in the kinase profiling compilation of Christmann-Franck et al. (2016).

Tests used:
Assay in all cases: KINOMEscan competition binding
Conditions in all cases: compound 10.0 µM
STK33 (human) = STK33 (human) (UniProt Q9BYT3)
BRSK1 (human) = BRSK1 (human) (UniProt Q8TDC3)
TTK (human) = TTK (human) (UniProt P33981)
ACVRL1 (human) = ACVRL1 (human) (UniProt P37023)
TAOK3 (human) = TAOK3 (human) (UniProt Q9H2K8)
NTRK2 (human) = NTRK2 (human) (UniProt Q16620)
[1] = target: JAK1 JH1 catalytic (human) (UniProt P23458)
CHUK (human) = CHUK (human) (UniProt O15111)
RPS6KA1 KD2 (human) = RPS6KA1 KD2 (human) (UniProt Q15418)
PDGFRB (human) = PDGFRB (human) (UniProt P09619)
PLK1 (human) = PLK1 (human) (UniProt P53350)
MKNK1 (human) = MKNK1 (human) (UniProt Q9BUB5)
RPS6KA2 KD1 (human) = RPS6KA2 KD1 (human) (UniProt Q15349)
CDK15 (human) = CDK15 (human) (UniProt Q96Q40)
MYLK2 (human) = MYLK2 (human) (UniProt Q9H1R3)
SRPK1 (human) = SRPK1 (human) (UniProt Q96SB4)
TNK2 (human) = TNK2 (human) (UniProt Q07912)
MAPK4 (human) = MAPK4 (human) (UniProt P31152)
CDK7 (human) = CDK7 (human) (UniProt P50613)
SGK110 (human) = SGK110 (human) (UniProt P0C264)
DCLK2 (human) = DCLK2 (human) (UniProt Q8N568)
FYN (human) = FYN (human) (UniProt P06241)
CSNK1G1 (human) = CSNK1G1 (human) (UniProt Q9HCP0)
MAP3K11 (human) = MAP3K11 (human) (UniProt Q16584)
EPHB2 (human) = EPHB2 (human) (UniProt P29323)
CDC42BPG (human) = CDC42BPG (human) (UniProt Q6DT37)
PRKACA (human) = PRKACA (human) (UniProt P17612)
MAPK9 (human) = MAPK9 (human) (UniProt P45984)
WEE1 (human) = WEE1 (human) (UniProt P30291)
PRKD2 (human) = PRKD2 (human) (UniProt Q9BZL6)
RIOK3 (human) = RIOK3 (human) (UniProt O14730)
IKBKB (human) = IKBKB (human) (UniProt O14920)
MAP3K10 (human) = MAP3K10 (human) (UniProt Q02779)
STK11 (human) = STK11 (human) (UniProt Q15831)
STK17A (human) = STK17A (human) (UniProt Q9UEE5)
MAPKAPK2 (human) = MAPKAPK2 (human) (UniProt P49137)
CAMK2A (human) = CAMK2A (human) (UniProt Q9UQM7)
MAP2K2 (human) = MAP2K2 (human) (UniProt P36507)
CDK18 (human) = CDK18 (human) (UniProt Q07002)
[2] = target: TYK2 JH1 catalytic (human) (UniProt P29597)

Chain of CDC42BPG (human) (Q6DT37 whole entry, looked up): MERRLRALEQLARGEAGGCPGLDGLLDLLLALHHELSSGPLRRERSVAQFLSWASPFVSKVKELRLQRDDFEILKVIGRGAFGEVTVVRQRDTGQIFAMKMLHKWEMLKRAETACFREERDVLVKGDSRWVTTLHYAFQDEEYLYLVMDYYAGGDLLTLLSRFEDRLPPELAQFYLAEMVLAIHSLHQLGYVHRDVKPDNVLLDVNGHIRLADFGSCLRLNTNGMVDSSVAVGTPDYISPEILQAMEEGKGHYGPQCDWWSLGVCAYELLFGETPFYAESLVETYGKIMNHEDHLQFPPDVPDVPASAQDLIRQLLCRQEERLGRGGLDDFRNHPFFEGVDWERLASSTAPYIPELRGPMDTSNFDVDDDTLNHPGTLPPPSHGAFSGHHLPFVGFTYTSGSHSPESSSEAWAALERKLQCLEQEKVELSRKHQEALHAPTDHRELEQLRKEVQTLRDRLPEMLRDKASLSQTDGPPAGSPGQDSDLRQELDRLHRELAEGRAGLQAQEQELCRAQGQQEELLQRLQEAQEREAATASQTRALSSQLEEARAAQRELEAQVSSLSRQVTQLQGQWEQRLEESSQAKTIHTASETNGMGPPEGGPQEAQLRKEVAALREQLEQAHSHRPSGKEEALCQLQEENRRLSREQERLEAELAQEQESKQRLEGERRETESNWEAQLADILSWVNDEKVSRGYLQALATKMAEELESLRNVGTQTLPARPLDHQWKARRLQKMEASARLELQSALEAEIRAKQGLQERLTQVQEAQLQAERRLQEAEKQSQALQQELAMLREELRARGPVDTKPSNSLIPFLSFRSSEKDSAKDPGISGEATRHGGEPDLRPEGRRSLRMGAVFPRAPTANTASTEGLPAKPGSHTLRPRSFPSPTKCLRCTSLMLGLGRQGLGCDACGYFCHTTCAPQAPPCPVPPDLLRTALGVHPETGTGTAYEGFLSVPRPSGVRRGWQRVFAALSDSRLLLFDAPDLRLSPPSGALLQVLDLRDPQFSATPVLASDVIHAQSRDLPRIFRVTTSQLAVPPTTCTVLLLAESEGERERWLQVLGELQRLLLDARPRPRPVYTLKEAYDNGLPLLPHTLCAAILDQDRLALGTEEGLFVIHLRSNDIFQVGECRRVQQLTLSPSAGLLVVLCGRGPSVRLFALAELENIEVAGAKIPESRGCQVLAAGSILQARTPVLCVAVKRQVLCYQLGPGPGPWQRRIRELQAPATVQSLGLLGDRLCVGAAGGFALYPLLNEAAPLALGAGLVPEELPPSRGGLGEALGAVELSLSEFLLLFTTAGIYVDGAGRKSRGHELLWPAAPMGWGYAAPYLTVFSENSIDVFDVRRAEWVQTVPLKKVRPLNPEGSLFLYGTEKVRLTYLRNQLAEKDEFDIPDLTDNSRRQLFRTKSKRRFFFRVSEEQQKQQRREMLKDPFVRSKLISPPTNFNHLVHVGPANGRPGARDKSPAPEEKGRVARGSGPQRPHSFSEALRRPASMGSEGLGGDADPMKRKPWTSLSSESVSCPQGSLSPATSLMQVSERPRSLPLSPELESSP
Chain of IKBKB (human) (O14920 whole entry, looked up): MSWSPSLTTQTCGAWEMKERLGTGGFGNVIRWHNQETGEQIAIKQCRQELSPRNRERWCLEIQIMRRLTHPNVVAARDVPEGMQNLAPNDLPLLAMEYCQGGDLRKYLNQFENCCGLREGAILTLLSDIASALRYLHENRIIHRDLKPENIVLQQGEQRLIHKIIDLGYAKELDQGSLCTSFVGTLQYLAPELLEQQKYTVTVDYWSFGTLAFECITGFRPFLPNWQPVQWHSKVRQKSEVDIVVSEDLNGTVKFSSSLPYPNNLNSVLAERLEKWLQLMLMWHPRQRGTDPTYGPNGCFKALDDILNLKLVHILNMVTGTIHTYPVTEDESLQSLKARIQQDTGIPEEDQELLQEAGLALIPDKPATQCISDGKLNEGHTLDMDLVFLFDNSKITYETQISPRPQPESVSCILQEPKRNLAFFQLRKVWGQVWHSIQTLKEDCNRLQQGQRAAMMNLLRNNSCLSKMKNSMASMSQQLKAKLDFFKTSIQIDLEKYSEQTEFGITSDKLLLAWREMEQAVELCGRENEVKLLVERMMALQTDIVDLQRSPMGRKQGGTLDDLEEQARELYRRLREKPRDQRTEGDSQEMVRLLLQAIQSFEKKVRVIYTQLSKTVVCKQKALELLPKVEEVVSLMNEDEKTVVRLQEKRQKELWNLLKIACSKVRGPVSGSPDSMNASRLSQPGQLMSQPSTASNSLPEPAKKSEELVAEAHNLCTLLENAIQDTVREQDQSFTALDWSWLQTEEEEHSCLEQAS
Chain of STK11 (human) (Q15831 whole entry, looked up): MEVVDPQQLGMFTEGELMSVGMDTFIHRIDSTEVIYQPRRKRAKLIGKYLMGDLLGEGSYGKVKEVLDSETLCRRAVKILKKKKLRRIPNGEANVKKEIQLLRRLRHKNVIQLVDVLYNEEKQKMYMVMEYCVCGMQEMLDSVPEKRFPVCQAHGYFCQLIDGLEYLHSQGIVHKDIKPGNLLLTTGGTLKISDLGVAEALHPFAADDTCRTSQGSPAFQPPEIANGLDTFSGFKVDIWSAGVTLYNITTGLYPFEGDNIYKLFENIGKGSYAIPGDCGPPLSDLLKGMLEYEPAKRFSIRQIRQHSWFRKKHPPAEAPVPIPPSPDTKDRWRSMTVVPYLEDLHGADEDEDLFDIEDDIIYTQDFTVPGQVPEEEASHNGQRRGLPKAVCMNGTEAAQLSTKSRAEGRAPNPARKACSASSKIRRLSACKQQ
Chain of CAMK2A (human) (Q9UQM7 whole entry, looked up): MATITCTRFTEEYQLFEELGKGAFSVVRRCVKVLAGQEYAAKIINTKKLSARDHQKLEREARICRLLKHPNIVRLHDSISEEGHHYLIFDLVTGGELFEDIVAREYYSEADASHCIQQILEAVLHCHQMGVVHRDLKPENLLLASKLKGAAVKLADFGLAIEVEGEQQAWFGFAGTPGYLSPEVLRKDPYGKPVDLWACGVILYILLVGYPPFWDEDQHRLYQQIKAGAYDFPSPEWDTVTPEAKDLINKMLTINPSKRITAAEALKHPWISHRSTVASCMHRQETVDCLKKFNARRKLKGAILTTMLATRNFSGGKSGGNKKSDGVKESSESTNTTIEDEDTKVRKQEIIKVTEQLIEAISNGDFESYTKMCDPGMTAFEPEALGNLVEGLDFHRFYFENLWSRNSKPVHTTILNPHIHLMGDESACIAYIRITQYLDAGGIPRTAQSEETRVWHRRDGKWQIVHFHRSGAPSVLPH
Chain of PRKD2 (human) (Q9BZL6 whole entry, looked up): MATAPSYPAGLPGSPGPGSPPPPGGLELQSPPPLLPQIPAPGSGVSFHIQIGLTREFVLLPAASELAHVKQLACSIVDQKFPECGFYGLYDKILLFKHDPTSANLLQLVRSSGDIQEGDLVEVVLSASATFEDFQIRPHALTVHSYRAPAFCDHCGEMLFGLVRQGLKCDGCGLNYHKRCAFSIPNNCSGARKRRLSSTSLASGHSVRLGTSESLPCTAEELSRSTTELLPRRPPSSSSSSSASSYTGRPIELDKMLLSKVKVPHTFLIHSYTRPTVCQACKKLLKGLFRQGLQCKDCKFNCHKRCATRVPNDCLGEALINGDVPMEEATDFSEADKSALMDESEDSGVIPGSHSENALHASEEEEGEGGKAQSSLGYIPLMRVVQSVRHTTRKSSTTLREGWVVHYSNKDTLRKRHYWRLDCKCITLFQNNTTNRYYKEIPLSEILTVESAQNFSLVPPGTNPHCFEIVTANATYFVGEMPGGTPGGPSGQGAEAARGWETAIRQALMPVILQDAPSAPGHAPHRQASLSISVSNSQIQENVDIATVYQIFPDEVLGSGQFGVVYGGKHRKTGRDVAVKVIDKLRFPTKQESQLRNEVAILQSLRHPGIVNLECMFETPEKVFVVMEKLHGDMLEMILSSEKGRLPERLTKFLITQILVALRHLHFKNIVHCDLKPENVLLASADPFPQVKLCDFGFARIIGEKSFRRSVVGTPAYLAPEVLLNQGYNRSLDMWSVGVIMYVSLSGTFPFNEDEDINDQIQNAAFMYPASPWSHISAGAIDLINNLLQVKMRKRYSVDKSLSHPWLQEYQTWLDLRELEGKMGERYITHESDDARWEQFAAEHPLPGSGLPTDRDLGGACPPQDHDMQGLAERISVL
Chain of CSNK1G1 (human) (Q9HCP0 whole entry, looked up): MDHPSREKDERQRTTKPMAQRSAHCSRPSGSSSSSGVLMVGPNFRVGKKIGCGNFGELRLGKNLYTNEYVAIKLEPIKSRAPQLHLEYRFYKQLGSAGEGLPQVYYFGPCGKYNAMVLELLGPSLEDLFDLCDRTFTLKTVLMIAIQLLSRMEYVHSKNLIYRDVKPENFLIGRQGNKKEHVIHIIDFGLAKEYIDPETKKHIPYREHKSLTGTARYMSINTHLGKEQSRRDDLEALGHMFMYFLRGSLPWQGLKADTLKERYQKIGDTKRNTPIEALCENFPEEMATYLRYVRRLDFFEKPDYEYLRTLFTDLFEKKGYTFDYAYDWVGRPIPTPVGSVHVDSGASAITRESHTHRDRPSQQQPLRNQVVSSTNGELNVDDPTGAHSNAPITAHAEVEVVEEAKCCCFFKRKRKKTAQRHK
Chain of STK33 (human) (Q9BYT3 whole entry, looked up): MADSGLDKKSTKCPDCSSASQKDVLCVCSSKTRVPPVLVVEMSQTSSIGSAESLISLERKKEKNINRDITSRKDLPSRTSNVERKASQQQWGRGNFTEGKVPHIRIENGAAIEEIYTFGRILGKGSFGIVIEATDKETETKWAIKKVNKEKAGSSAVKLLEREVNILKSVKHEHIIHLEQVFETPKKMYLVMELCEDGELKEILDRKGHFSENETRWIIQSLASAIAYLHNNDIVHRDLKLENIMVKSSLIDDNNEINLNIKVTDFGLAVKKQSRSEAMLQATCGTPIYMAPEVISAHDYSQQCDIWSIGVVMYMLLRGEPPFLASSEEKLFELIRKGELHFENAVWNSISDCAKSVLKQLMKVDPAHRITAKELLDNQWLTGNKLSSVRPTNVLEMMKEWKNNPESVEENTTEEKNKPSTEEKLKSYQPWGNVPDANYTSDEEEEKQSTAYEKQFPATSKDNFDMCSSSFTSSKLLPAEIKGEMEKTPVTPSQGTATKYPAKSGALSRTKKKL

Row | SMILES | kinase still bound, per cent of control (STK33 (human)) | kinase still bound, per cent of control (BRSK1 (human)) | kinase still bound, per cent of control (TTK (human)) | kinase still bound, per cent of control (ACVRL1 (human)) | kinase still bound, per cent of control (TAOK3 (human)) | kinase still bound, per cent of control (NTRK2 (human)) | kinase still bound, per cent of control [1] | kinase still bound, per cent of control (CHUK (human)) | kinase still bound, per cent of control (RPS6KA1 KD2 (human)) | kinase still bound, per cent of control (PDGFRB (human)) | kinase still bound, per cent of control (PLK1 (human)) | kinase still bound, per cent of control (MKNK1 (human)) | kinase still bound, per cent of control (RPS6KA2 KD1 (human)) | kinase still bound, per cent of control (CDK15 (human)) | kinase still bound, per cent of control (MYLK2 (human)) | kinase still bound, per cent of control (SRPK1 (human)) | kinase still bound, per cent of control (TNK2 (human)) | kinase still bound, per cent of control (MAPK4 (human)) | kinase still bound, per cent of control (CDK7 (human)) | kinase still bound, per cent of control (SGK110 (human)) | further results
1 | C=CC(=O)Nc1cc(NC(=O)c2ccc(C)c(NC(=O)c3ccno3)c2)cc(C(F)(F)F)c1 | 100% | 100% | 77% | 100% | 77% | 84% | 100% | 100% | 100% | 1.2% | 77% | 100% | 100% | 93% | 100% | 86% | 84% | 100% | 91% | 100% | kinase still bound, per cent of control (DCLK2 (human)): 100%; kinase still bound, per cent of control (FYN (human)): 73%; kinase still bound, per cent of control (CSNK1G1 (human)): 100%; kinase still bound, per cent of control (MAP3K11 (human)): 100%; kinase still bound, per cent of control (EPHB2 (human)): 77%; kinase still bound, per cent of control (CDC42BPG (human)): 100%; kinase still bound, per cent of control (PRKACA (human)): 100%; kinase still bound, per cent of control (MAPK9 (human)): 94%; kinase still bound, per cent of control (WEE1 (human)): 100%; kinase still bound, per cent of control (PRKD2 (human)): 100%; kinase still bound, per cent of control (RIOK3 (human)): 76%; kinase still bound, per cent of control (IKBKB (human)): 90%; kinase still bound, per cent of control (MAP3K10 (human)): 100%; kinase still bound, per cent of control (STK11 (human)): 100%; kinase still bound, per cent of control (STK17A (human)): 100%; kinase still bound, per cent of control (MAPKAPK2 (human)): 100%; kinase still bound, per cent of control (CAMK2A (human)): 91%; kinase still bound, per cent of control (MAP2K2 (human)): 93%; kinase still bound, per cent of control (CDK18 (human)): 91%; kinase still bound, per cent of control [2]: 98%
2 | CN(C)C/C=C/C(=O)Nc1cccc(Nc2ncc3c(n2)N(C)c2ccccc2C(=O)N3C)c1 | 8.9% | 14% | 28% | 100% | 0% | 4% | 2.8% | 100% | 39% | 38% | 22% | 38% | 50% | 84% | 46% | 23% | 4.4% | 100% | 9.6% | 0.25% | kinase still bound, per cent of control (DCLK2 (human)): 0.5%; kinase still bound, per cent of control (FYN (human)): 6.7%; kinase still bound, per cent of control (CSNK1G1 (human)): 47%; kinase still bound, per cent of control (MAP3K11 (human)): 100%; kinase still bound, per cent of control (EPHB2 (human)): 100%; kinase still bound, per cent of control (CDC42BPG (human)): 100%; kinase still bound, per cent of control (PRKACA (human)): 100%; kinase still bound, per cent of control (MAPK9 (human)): 100%; kinase still bound, per cent of control (WEE1 (human)): 100%; kinase still bound, per cent of control (PRKD2 (human)): 36%; kinase still bound, per cent of control (RIOK3 (human)): 16%; kinase still bound, per cent of control (IKBKB (human)): 100%; kinase still bound, per cent of control (MAP3K10 (human)): 89%; kinase still bound, per cent of control (STK11 (human)): 100%; kinase still bound, per cent of control (STK17A (human)): 97%; kinase still bound, per cent of control (MAPKAPK2 (human)): 100%; kinase still bound, per cent of control (CAMK2A (human)): 32%; kinase still bound, per cent of control (MAP2K2 (human)): 78%; kinase still bound, per cent of control (CDK18 (human)): 100%; kinase still bound, per cent of control [2]: 5%
